From article PMC7916057

B1: AS1411-N6 (structured_DNA)
DNA: GGTTGGGGTGGTGGTGGTTGTGGTGGTGGTGGCCAACC

How the values were obtained:
[1] = tested on: AS1411-N6 (FRET-labeled) (DNA, G4) GGTTGGGGTGGTGGTGGTTGTGGTGGTGGTGGCCAACC; assay: FRET melting; settings: K+ 140 mM; 10 mM lithium cacodylate pH 7.2; ligand 4 eq., DNA 0.2 µM
[2] = tested on: AS1411 (FRET-labeled) (DNA, G4) GGTGGTGGTGGTTGTGGTGGTGGTGG; assay: FRET melting; settings: K+ 140 mM; 10 mM lithium cacodylate pH 7.2; ligand 4 eq., DNA 0.2 µM
[3] = tested on: AS1411-N6 (biotin-labeled) (DNA, G4) GGTTGGGGTGGTGGTGGTTGTGGTGGTGGTGGCCAACC; assay: SPR; settings: K+ 140 mM; 10 mM phosphate, 25 °C; 1:1 affinity model
[4] = tested on: AS1411 (biotin-labeled) (DNA, G4) GGTGGTGGTGGTTGTGGTGGTGGTGG; assay: SPR; settings: K+ 140 mM; 10 mM phosphate, 25 °C; 1:1 affinity model
[5] = tested on: AS1411-N6 (DNA, G4) GGTTGGGGTGGTGGTGGTTGTGGTGGTGGTGGCCAACC; assay: CD spectra; settings: K+ 140 mM, 10 mM lithium cacodylate
[6] = tested on: AS1411 (DNA, G4) GGTGGTGGTGGTTGTGGTGGTGGTGG; assay: CD melting (260 nm); settings: K+ 140 mM; 10 mM lithium cacodylate pH 7.2; ligand equivalents not given
[7] = tested on: AS1411 (DNA, G4) GGTGGTGGTGGTTGTGGTGGTGGTGG; assay: CD spectra; settings: K+ 140 mM; 10 mM lithium cacodylate; ellipticity increase
[8] = tested on: AS1411-N6 (DNA, G4) GGTTGGGGTGGTGGTGGTTGTGGTGGTGGTGGCCAACC; assay: CD melting (260 nm); settings: K+ 140 mM; 10 mM lithium cacodylate pH 7.2; ligand 4 eq., DNA 10 µM
[9] = tested on: AS1411-N6 (DNA, G4) GGTTGGGGTGGTGGTGGTTGTGGTGGTGGTGGCCAACC; assay: 1H NMR titration (imino region); settings: 10 mM potassium phosphate pH 6.9, 10% D2O, 25 °C; duplex signals lost at 3 eq.
[10] = biological target: T1, nucleolin RBD1,2 (NCL RBD 1,2) (UniProt P19338 307-466); assay: fluorescence titration; 360A; PAGE: 10 mM phosphate, 140 mM KCl, 20 uM DNA, 1:1(:1) ratio, 30 min; fluorescence titration buffer, pH and temperature not given in the material; settings: protein: recombinant; unlabelled in PAGE; stem-loop duplex plus G4; monomer major, dimer band also seen
[11] = biological target: T1, nucleolin RBD1,2 (NCL RBD 1,2); assay: fluorescence titration; TMPyP4; PAGE: 10 mM phosphate, 140 mM KCl, 20 uM DNA, 1:1(:1) ratio, 30 min; fluorescence titration buffer, pH and temperature not given in the material; settings: protein: recombinant; unlabelled in PAGE; stem-loop duplex plus G4; monomer major, dimer band also seen
[12] = biological target: T1, nucleolin RBD1,2 (NCL RBD 1,2); assay: fluorescence titration; PhenDC3; PAGE: 10 mM phosphate, 140 mM KCl, 20 uM DNA, 1:1(:1) ratio, 30 min; fluorescence titration buffer, pH and temperature not given in the material; settings: protein: recombinant; unlabelled in PAGE; stem-loop duplex plus G4; monomer major, dimer band also seen
[13] = biological target: T1, nucleolin RBD1,2 (NCL RBD 1,2); assay: fluorescence titration; no ligand; PAGE: 10 mM phosphate, 140 mM KCl, 20 uM DNA, 1:1(:1) ratio, 30 min; fluorescence titration buffer, pH and temperature not given in the material; settings: protein: recombinant; unlabelled in PAGE; stem-loop duplex plus G4; monomer major, dimer band also seen

T1 sequence (P19338 307-466): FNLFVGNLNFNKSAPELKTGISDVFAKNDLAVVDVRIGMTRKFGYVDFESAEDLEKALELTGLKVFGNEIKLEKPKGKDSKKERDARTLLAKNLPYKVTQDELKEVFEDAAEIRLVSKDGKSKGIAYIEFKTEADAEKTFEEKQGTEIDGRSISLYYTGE

| Molecule | ΔTm [1] [°C] | ΔTm [2] [°C] | KD [3] [nM] | KD [4] [nM] | binding [7] | further results |
| --- | --- | --- | --- | --- | --- | --- |
| NCCOc1cc(C(=O)Nc2cc(OCCN)c3ccccc3n2)nc(C(=O)Nc2cc(OCCN)c3ccccc3n2)c1 | 2.35 ± 0.44 | -0.75 ± 1.02 |  |  |  |  |
| C[n+]1ccc(-c2c3nc(c(-c4cc[n+](C)cc4)c4ccc([nH]4)c(-c4cc[n+](C)cc4)c4nc(c(-c5cc[n+](C)cc5)c5ccc2[nH]5)C=C4)C=C3)cc1 | 28.94 ± 0.23 | 21.75 ± 1.08 | 264 ± 30 | 115 ± 7.09 |  | binding ([5]; ellipticity increase): yes; ΔTm [6]: ~ 25 °C |
| CN(C)c1ccc(Nc2c3ccc(NC(=O)CCN4CCCC4)cc3nc3cc(NC(=O)CCN4CCCC4)ccc23)cc1 | 3.73 ± 0.09 | 8.99 ± 0.79 |  |  |  |  |
| C[n+]1cc(NC(=O)c2ccc3ccc4ccc(C(=O)Nc5cc6ccccc6[n+](C)c5)nc4c3n2)cc2ccccc21 | 22.89 ± 1.49 | 24.77 ± 2.56 | 227 ± 54 | 344 ± 53.8 | yes | binding ([5]; 280 nm band lost at 3–4 eq.): yes |
| C[n+]1cc(NC(=O)c2cccc(C(=O)Nc3cc4ccccc4[n+](C)c3)n2)cc2ccccc21 | 20.16 ± 0.41 | 19.28 ± 0.99 | 38.2 ± 5.4 | 43.4 ± 8.47 | yes | ΔTm [8]: > 30 °C; binding [9]: yes |
| B1 |  |  |  |  |  | Kd [10]: 700 ± 100 nM; Kd [11]: 1100 ± 200 nM; Kd [12]: 1500 ± 300 nM; Kd [13]: 1000 ± 100 nM |
